What was measured:
Details in all cases: 72 h
Caco-2 [1] = experiment: cell viability relative to DMSO; higher = less toxic
Calu-3 [2] = experiment: as above
HepG2 [3] = experiment: as above
U2OS [4] = experiment: as above
Vero E6 [5] = experiment: as above
Caco-2 [6] = experiment: relative viability EC50 (midpoint between 100% and the lowest measured viability); higher = less toxic
Calu-3 [7] = experiment: as above
HepG2 [8] = experiment: as above
U2OS [9] = experiment: as above
Vero E6 [10] = experiment: as above
Caco-2 [11] = experiment: drug sensitivity score (DSS) for viability; higher = more toxic; extreme values may be limits of the assay
Calu-3 [12] = experiment: as above
HepG2 [13] = experiment: as above
U2OS [14] = experiment: as above
Vero E6 [15] = experiment: as above

SMILES | cell viability (Caco-2 [1]; 1 nM) | cell viability (Caco-2 [1]; 10 nM) | cell viability (Caco-2 [1]; 100 nM) | cell viability (Caco-2 [1]; 1000 nM) | cell viability (Caco-2 [1]; 10000 nM) | cell viability (Calu-3 [2]; 1 nM) | cell viability (Calu-3 [2]; 10 nM) | cell viability (Calu-3 [2]; 100 nM) | cell viability (Calu-3 [2]; 1000 nM) | cell viability (Calu-3 [2]; 10000 nM) | cell viability (HepG2 [3]; 1 nM) | cell viability (HepG2 [3]; 10 nM) | cell viability (HepG2 [3]; 100 nM) | cell viability (HepG2 [3]; 1000 nM) | cell viability (HepG2 [3]; 10000 nM) | cell viability (U2OS [4]; 1 nM) | cell viability (U2OS [4]; 10 nM) | cell viability (U2OS [4]; 100 nM) | cell viability (U2OS [4]; 1000 nM) | cell viability (U2OS [4]; 10000 nM) | cell viability (Vero E6 [5]; 1 nM) | cell viability (Vero E6 [5]; 10 nM) | cell viability (Vero E6 [5]; 100 nM) | cell viability (Vero E6 [5]; 1000 nM) | cell viability (Vero E6 [5]; 10000 nM) | relative viability EC50 (Caco-2 [6]) | relative viability EC50 (Calu-3 [7]) | relative viability EC50 (HepG2 [8]) | relative viability EC50 (U2OS [9]) | relative viability EC50 (Vero E6 [10]) | drug sensitivity score (Caco-2 [11]) | drug sensitivity score (Calu-3 [12]) | drug sensitivity score (HepG2 [13]) | drug sensitivity score (U2OS [14]) | drug sensitivity score (Vero E6 [15])
O=C(O)c1ccc(/C=C2\SC(=S)N(c3cccc(C(F)(F)F)c3)C2=O)cc1 [CFTRinh-172] | 104% | 100% | 86.7% | 99.4% | 99.9% | 102% | 99.9% | 97.8% | 106% | 116% | 111% | 104% | 96.2% | 94.7% | 106% | 95.2% | 101% | 94.2% | 104% | 99.4% | 96.3% | 96.3% | 96.4% | 93.9% | 107% | > 10 µM | > 10 µM | > 10 µM | > 10 µM | > 10 µM | 0 | 0 | 0 | 0 | 0
O=C(O)C1=CCCN(CCOC(c2ccc(C(F)(F)F)cc2)c2ccc(C(F)(F)F)cc2)C1 [CI-966] | 101% | 101% | 105% | 100% | 90.4% | 97.6% | 101% | 102% | 98.5% | 96.4% | 98.7% | 99.3% | 104% | 95.5% | 109% | 101% | 107% | 106% | 98.7% | 98% | 98.2% | 99.4% | 101% | 97.8% | 99.4% | > 10 µM | > 10 µM | > 10 µM | > 10 µM | > 10 µM | 0 | 0 | 0 | 0 | 0
Cc1cc(NC(=O)C(c2ccccc2)N2CCCc3ccccc32)no1 (stereo not given) [CIM-0216] | 97.1% | 101% | 98.2% | 97.4% | 114% | 103% | 98.5% | 87.7% | 113% | 111% | 104% | 103% | 103% | 90.1% | 98.3% | 98.7% | 104% | 97.4% | 101% | 97% | 104% | 99.2% | 96.3% | 101% | 101% | > 10 µM | > 10 µM | > 10 µM | > 10 µM | > 10 µM | 0 | 0 | 0 | 0 | 0
COc1cccc(/C=N/N=C/c2cccc(OC)c2)c1 [DMeOB] | 96.4% | 106% | 96.9% | 104% | 103% | 101% | 114% | 99.6% | 111% | 105% | 110% | 93.3% | 103% | 98.4% | 94.9% | 101% | 102% | 97.5% | 107% | 99.3% | 109% | 99.8% | 103% | 99.2% | 103% | > 10 µM | > 10 µM | > 10 µM | > 10 µM | > 10 µM | 0 | 0 | 0 | 0 | 0
